{"source": "patent US9844563B2", "about": "“Compositions, kits, and methods to induce acquired cytoresistance using stress protein inducers” (FRED HUTCHINSON CANCER RESEARCH CENTER, priority 2014, dated 2017)", "key": {"[1]": {"settings": "Berglund et al. Hepatology 1988; cited from earlier work"}, "IL-10": {"tested_on": "IL-10", "assay": "Renal cortical IL-10 mRNA and protein after N-Mgb, SnPP or both", "type": "in vivo, mice", "procedure": "(§1) Thirty-two mice were divided into 4 equal groups: (1) control mice; (2) mice treated with 1 mg of N-Mgb injection (as a bolus through the tail vein); (3) mice treated with […] of SnPP (via tail vein); and (4) mice treated with combined N-Mgb 1 SnPP. After either 4 hours (n=16) or 18 hours (n=16), the mice were deeply anesthetized with pentobarbital (50 mg/kg), the abdomen was opened through a midline abdominal incision, and the kidneys were removed. To determine potential effects on extrarenal organs, a liver lobe and the heart were also removed. The tissues were iced and then extracted for protein and RNA (RNeasy Plus Mini; Qiagen, Valencia, Calif.) and subjected to enzyme linked immunosorbent assay (ELISA) and reverse transcriptase polymerase chain reaction (RT-PCR) for HO-1, haptoglobin, and IL-10 protein and messenger RNAs (mRNAs). Zager et al. J Am Soc Nephrol 2014;25:998-1012; Zager et al. Am J Physiol 2012;303:F139-48. As an assessment of renal function, control mice and the 18 hour after N-Mgb+SnPP—treated mice had blood urea nitrogen (BUN) and plasma creatinine levels measured. Additionally, transverse 10% formalin fixed kidney sections ([…]) were cut and stained with hematoxylin and eosin (H&E) and periodic acid Schiff (PAS) to further assess potential injury."}, "HO-1": {"tested_on": "HO-1", "assay": "Renal cortical HO-1 protein (ELISA) after IV myoglobin, SnPP or both", "type": "in vivo, mice", "settings": "Cortex, 4 hr IV, 1 mg Myoglobin, 1 μmole SnPP", "text": "(§2) The Glycerol Model of AKI. This is a widely used model of rhabdomyolysis-induced AKI that has been employed worldwide for 50 years. The model was used to test whether prophylactic interventions confer protection against AKI. Basically, the protocol is as follows: Male CD-1 mice (35-45 grams), obtained from Charles River Laboratories, Wilmington, Mass. were studied. Mice were maintained under standard vivarium conditions and generally housed for 1-3 weeks prior to study. The mice were placed in a cylindrical restraining cage, and then were given a tail vein injection of the test substances (see below) or test substance vehicle. The mice were then returned to their cages. Eighteen hours (hrs) later, the mice were briefly anesthetized by isoflurane inhalation, and given an intramuscular injection of hypertonic (50%) glycerol in a dose of 9 ml/Kg body weight. The dose is divided in two, with half injected into the muscle of each of the hind limbs. The mice were then returned to their cages. Eighteen hrs later, the mice were deeply anesthetized with pentobarbital (50-100 mg/Kg), the abdominal cavity was opened through a midline abdominal incision, a blood sample was obtained from the abdominal vena cava and the kidneys were resected. A kidney cross section was obtained and fixed in formalin for subsequent histologic analysis. The terminal blood samples were analyzed for BUN and creatinine, using commercially available assay kits. The remaining kidney tissue was subjected to cortical dissection, and the cortical tissues were then extracted for protein and RNA. The protein samples were saved for analysis of HO-1 levels, and the RNA samples were subjected to RT-PCR to quantify HO-1 mRNA as well as levels of other stress gene mRNAs (e.g. NGAL, haptoglobin, hemopexin, hepicidin).\n(§3) Myoglobin+SnPP: To 5 mg of dry myoglobin was added 0.9 ml of PBS+0.1 ml of a stock SnPP solution (50 umole/ml). The resulting final concentrations were 5 mg/ml myoglobin+5 umoles/ml of SnPP. The tail vein was injected with 200 ul of this solution, which equals 1 mg myoglobin+1 umole SnPP. […]\nFour hr post myoglobin vs myoglobin+SnPP vs SnPP alone experiments. To confirm that the myoglobin+SnPP has a synergistic effect in inducing HO-1 mRNA and HO-1 protein levels, each of the above combinations have been administered alone via tail vein injection. […] For additional information regarding methods, see Zager et al., Am J Physiol Renal Physiol. 2014 Jul. 30. Pii."}, "HO-1 mRNA": {"tested_on": "HO-1 mRNA", "assay": "Renal cortical HO-1 mRNA (RT-PCR) after IV myoglobin, SnPP or both", "type": "in vivo, mice", "settings": "4 hrs post IV injection", "text": "as §2, §3\nFour hr post myoglobin vs myoglobin+SnPP vs SnPP alone experiments. To confirm that the myoglobin+SnPP has a synergistic effect in inducing HO-1 mRNA and HO-1 protein levels, each of the above combinations have been administered alone via tail vein injection. Four hrs later, the mice were sacrificed as noted above and the kidneys were harvested for assessment of HO-1 mRNA and protein levels. For additional information regarding methods, see Zager et al., Am J Physiol Renal Physiol. 2014 Jul. 30. Pii."}, "[2]": {"settings": "Agarwal et al., Kidney Int. 1995; cited from earlier work"}, "[3]": {"tested_on": "Mgb-exposed cultured proximal tubule (HK-2) cells", "settings": "Zager & Burkhart, Kidney Int 1997; cited from earlier work"}, "Haptoglobin": {"tested_on": "Haptoglobin", "assay": "Renal cortical haptoglobin mRNA and protein after N-Mgb, SnPP or both", "type": "in vivo, mice", "settings": "renal cortex, 4 h after Rx treatment", "procedure": "as §1"}, "[4]": {"assay": "Maleate model of AKI (FeS, SnPP, FeS+SnPP)", "type": "in vivo, mice", "settings": "IV 1 mg FeS and/or 1 μmole SnPP 18 hrs before IP Na maleate 800 mg/Kg; 18 hrs later", "text": "Effects of Fe sucrose (FeS)/tin protoporphyrin (SnPP) on AKI severity. Maleate model of AKI. When injected into rodents, maleate undergoes relatively selective proximal tubule cell uptake via organic anion transporters. Once intracellular accumulation occurs, maleate is a preferred substrate for succinyl-CoA:3-oxoacid CoA transferase. […] Ample levels of CoA are essential for fatty acid “activation”, allowing for their subsequent metabolism through the Krebs cycle, yielding ATP. In the absence of this process, proximal tubule ATP depletion and cell injury result. Additionally, maleate conjugates the sulfhydryl group of glutathione (GSH), culminating in GSH depletion and potential oxidant tubular stress.\nThe following experiment tested whether FeS, SnPP or combined FeS+SnPP can mitigate this form of acute kidney injury (AKI). Twenty seven mice were subjected to 200 μL IV tail injections of one of the following: 1) vehicle (phosphate buffered saline, PBS; n, 10); 2) 1 mg FeS (American Regent (Shirley, N.Y.; n, 3); 3) 1 μmole SnPP (Frontier Scientific, Logan, Utah; n 7), or FeS+SnPP, n, 7). Eighteen hrs later, all mice received an IP injection of Na maleate (800 mg/Kg; in 500 ul of PBS). […] The severity of kidney injury was assessed by determining plasma blood urea nitrogen (BUN) and plasma creatinine (PCr) concentrations."}, "[5]": {"settings": "Berglund et al.; Kappas et al.; Reddy et al.; cited from earlier work"}, "[6]": {"parameters": "species or system mice", "settings": "mouse, in vivo, iv"}}, "note": "Where “and” joins values, the source holds several entries; their conditions need not be identical. Equal values may be shown once.", "data": [{"smiles": "C=Cc1c2[n-]c(c1C)/C=c1\\[n-]/c(c(C)c1C=C)=C\\c1[n-]c(c(CCC(=O)O)c1C)C=c1[n-]/c(c(C)c1CCC(=O)O)=C\\2.[Sn+4]", "note": "[SnPP, Sn-protoporphyrin, reference compound]", "values": [{"measurement": "half-life", "setting": "[1]", "value": "2 to 4", "unit": "h"}, {"measurement": "increase in renal IL-10 mRNA", "setting": "IL-10; 4 hours after injection", "value": "either minimal or no impact"}, {"measurement": "increase in renal IL-10 protein", "setting": "IL-10; 18 hours after injection", "value": "absence of IL-10 protein increases"}, {"measurement": "Kidney IL-10 (protein)", "setting": "IL-10; renal cortex, 4 h after Rx treatment", "value": "550 ± 86"}, {"measurement": "HO-1 Protein Expression (by ELISA), Average", "setting": "HO-1; average", "value": 34.4, "unit": "ng HO-1/mg protein"}, {"measurement": "HO-1 Protein Expression (by ELISA), individual mice", "setting": "HO-1; single animals", "value": "32.2 ng HO-1/mg protein and 31.5 ng HO-1/mg protein and 20.5 ng HO-1/mg protein and 53.6 ng HO-1/mg protein"}, {"measurement": "HO-1 mRNA induction (HO-1/GAPDH mRNA), Average", "setting": "HO-1 mRNA; average", "value": 6.94, "unit": "HO-1/GAPDH mRNA"}, {"measurement": "HO-1 mRNA induction (HO-1/GAPDH mRNA), individual mice", "setting": "HO-1 mRNA; single animals", "value": "9.72 HO-1/GAPDH mRNA and 8.25 HO-1/GAPDH mRNA and 6.95 HO-1/GAPDH mRNA and 2.85 HO-1/GAPDH mRNA"}, {"measurement": "effect of pretreatment on renal injury", "setting": "[2]", "value": "exacerbated renal injury"}, {"measurement": "reduction of Mgb toxicity by SnPP addition", "setting": "[3]", "value": "≤ 85", "unit": "%"}, {"measurement": "Kidney Haptoglobin (protein)", "setting": "Haptoglobin", "value": "13.1 ± 1.3"}, {"measurement": "reductions in BUN/PCr concentrations, maleate-induced AKI", "setting": "[4]", "value": "Neither SnPP alone nor FeS alone significantly altered the severity of renal injury"}, {"measurement": "tolerability in humans", "setting": "[5]", "value": "well tolerated in humans"}, {"measurement": "Plasma LDH, Average", "setting": "[6]", "value": 4.51, "unit": "Absorbance U LDH/ml"}]}]}
